Experimental data from patent US10024845B2, “Methods for determining modulators of insect transient receptor potential V (TRPV) channel” (BASF SE, priority 2013, dated 2018).
Entries after “also recorded” stand apart in the source; their conditions may differ. Where two headings read alike, the source gives them in different places.

Experiments:
[1] = test system: insect TRPV channel (Drosophila Nanchung and Inactive co-expressed); format: cell-based; details: for Response of cells (fluorescence units), Insect TRPV cells: single high dose 20 μM; for Ca2+ mobilization in cells co-expressing Nan and Iav (insect TRPV channel), in words: FLUO4 probe; for Dependence of the cell response on Ca2+ in the extracellular media: insect TRPV-expressing cells; for Inhibition of stimulation of the insect TRPV channel: cell-impermeable ion channel blocker
parental CHO-K1 cells = format: cell-based, hamster
mouse TRPV4 (mTRPV4) = mouse TRPV4 (mTRPV4) (Mus musculus, UniProt Q9EPK8); experiment: Ca2+ mobilization (FLUO4, FLIPR) in CHO-K1 cells expressing mTRPV4; format: cell-based; details: for Ca2+ mobilization in cells expressing mTRPV4, in words: FLUO4 probe
[2] = CHO-K1 cells expressing insect TRPV
[3] = single high dose 20 μM, parental CHO-K1 cells
[4] = single high dose 20 μM, CHO-K1 cells expressing mTRPV4
[5] = listed as metabolite B of Pyrifluquinazon

Chain of mouse TRPV4 (mTRPV4) (Q9EPK8 whole entry): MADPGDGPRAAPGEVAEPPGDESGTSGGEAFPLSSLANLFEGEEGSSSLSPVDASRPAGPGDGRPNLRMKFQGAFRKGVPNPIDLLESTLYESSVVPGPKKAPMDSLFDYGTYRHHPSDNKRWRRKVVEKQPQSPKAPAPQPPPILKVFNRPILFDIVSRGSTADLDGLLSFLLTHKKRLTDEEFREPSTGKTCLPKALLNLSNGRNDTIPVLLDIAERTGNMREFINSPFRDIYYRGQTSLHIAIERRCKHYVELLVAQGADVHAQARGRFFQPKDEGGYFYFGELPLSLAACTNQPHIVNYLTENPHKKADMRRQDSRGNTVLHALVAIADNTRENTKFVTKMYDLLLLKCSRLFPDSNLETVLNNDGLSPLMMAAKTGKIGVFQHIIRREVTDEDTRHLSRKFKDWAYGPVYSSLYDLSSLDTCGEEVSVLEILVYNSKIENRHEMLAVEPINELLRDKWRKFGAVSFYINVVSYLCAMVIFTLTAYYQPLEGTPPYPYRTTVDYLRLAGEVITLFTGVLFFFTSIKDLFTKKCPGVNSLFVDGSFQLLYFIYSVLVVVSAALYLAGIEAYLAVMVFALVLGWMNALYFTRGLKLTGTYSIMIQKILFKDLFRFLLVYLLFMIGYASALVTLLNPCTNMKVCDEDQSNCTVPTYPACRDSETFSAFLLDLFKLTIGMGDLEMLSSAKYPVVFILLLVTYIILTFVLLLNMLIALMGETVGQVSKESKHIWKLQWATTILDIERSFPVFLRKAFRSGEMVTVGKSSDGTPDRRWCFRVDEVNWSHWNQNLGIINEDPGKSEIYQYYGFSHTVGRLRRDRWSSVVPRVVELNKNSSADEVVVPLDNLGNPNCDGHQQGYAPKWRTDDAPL

Compound | Response of cells (fluorescence units), Insect TRPV cells [1, 2] [fluorescence units] | Response of cells (fluorescence units), Parental CHO cells (parental CHO-K1 cells; [3]) [fluorescence units] | Response of cells (fluorescence units), mTRPV4 cells (mouse TRPV4 (mTRPV4); [4]) [fluorescence units] | further results
CC(=O)OCC[N+](C)(C)C [Acetylcholine] | 250 | 797 | – | –
Cc1ccc(/N=C/N(C)/C=N/c2ccc(C)cc2C)c(C)c1 [Amitraz] | 58 | 50 | 25 | –
Clc1cccc(Cl)c1N=C1NCCN1 [Clonidine] | 135 | – | – | Response of cells (fluorescence units), mTRPV4 cells (mouse TRPV4 (mTRPV4)): 62 fluorescence units; Response of cells (fluorescence units), Parental CHO cells (parental CHO-K1 cells): 136 fluorescence units
ClC1=C(Cl)[C@]2(Cl)[C@@H]3[C@@H]4C[C@@H]([C@H]5O[C@@H]45)[C@@H]3[C@@]1(Cl)C2(Cl)Cl [Dieldrin] | 78 | 73 | 52 | –
CN/C(=N/CC1CCOC1)N[N+](=O)[O-] (centres unmarked) [Dinotefuran] | 48 | – | 23 | Response of cells (fluorescence units), Parental CHO cells (parental CHO-K1 cells): 23 fluorescence units
Clc1ccc(C2CC3CCC2N3)cn1 (centres unmarked) [Epibatidine] | – | 49 | 63 | Response of cells (fluorescence units), Insect TRPV cells ([1]; […]): 70 fluorescence units
CC[S+]([O-])c1c(C#N)nn(-c2c(Cl)cc(C(F)(F)F)cc2Cl)c1N (centres unmarked) [Ethiprole] | 154 | 357 | 113 | –
N#Cc1nn(-c2c(Cl)cc(C(F)(F)F)cc2Cl)c(N)c1[S+]([O-])C(F)(F)F (centres unmarked) [Fipronil] | 133 | 240 | 60 | –
NCCCC(=O)O [GABA] | 68 | 100 | 43 | –
CC(C)C[C@H](NC(=O)c1cc2ccccc2s1)C(=O)N1CCN(C(=O)[C@H](CO)NS(=O)(=O)c2ccc(Cl)cc2Cl)CC1 [GSK1016790A, N-((1 S)-1-{[4-((2 S)-2-{[(2,4-dichlorophenyl)sulfonyl]amino}-3-hydroxypropanoyl)-1-piperazinyl]carbonyl}-3-methylbutyl)-1-benzothiophene-2-carboxamide] | 53 | 71 | 2017 | Ca2+ mobilization in cells expressing mTRPV4, in words (mouse TRPV4 (mTRPV4)): induced strong Ca^2+ mobilization response; also recorded: strong activation
O=[N+]([O-])NC1=NCCN1Cc1ccc(Cl)nc1 [Imidacloprid] | 42 | 69 | 16 | –
Cl[C@H]1[C@H](Cl)[C@@H](Cl)[C@@H](Cl)[C@H](Cl)[C@H]1Cl [Lindane] | 35 | 19 | 12 | –
CN1CCN2c3ccccc3Cc3ccccc3C2C1 (centres unmarked) [Miansenn] | – | 110 | 30 | Response of cells (fluorescence units), Insect TRPV cells ([1]; […]): 86 fluorescence units
c1ccc2c(CC3=NCCN3)cccc2c1 [Naphazoline] | 31 | 50 | 11 | –
CN1CCCC1c1cccnc1 (centres unmarked) [Nicotine] | 81 | – | – | Response of cells (fluorescence units), mTRPV4 cells (mouse TRPV4 (mTRPV4)): 8 fluorescence units; Response of cells (fluorescence units), Parental CHO cells (parental CHO-K1 cells): 65 fluorescence units
NCC(O)c1ccc(O)cc1 (centres unmarked) [Octopamine] | 66 | 45 | 20 | –
O=C1Nc2ccc(C(F)(C(F)(F)F)C(F)(F)F)cc2CN1NCc1cccnc1 [Pyrifluquinazon metabolite B] | 538 | 40 | 346 | Potency relative to the parental compound pyrifluquinazon [1]: about 100 fold; Ca2+ mobilization in cells co-expressing Nan and Iav (insect TRPV channel), in words [1]: activation of insect TRPV channel; Ca2+ mobilization in cells co-expressing Nan and Iav (insect TRPV channel), in words [1, 5]: triggered Ca^2+ mobilization; Dependence of the cell response on Ca2+ in the extracellular media [1]: requires presence of Ca^2+ in the extracellular media; Potency against mouse TRPV4 relative to Drosophila TRPV channel (mouse TRPV4 (mTRPV4)): ~100 fold; Ca2+ mobilization in cells expressing mTRPV4, in words (mouse TRPV4 (mTRPV4)): weak activation; Ca2+ mobilization in cells expressing mTRPV4, in words (mouse TRPV4 (mTRPV4); [5]): did trigger Ca^2+ mobilization
N.N.N.N.N.N.N.N.N.N.N.N.N.N.[Cl-].[Cl-].[Cl-].[Cl-].[Cl-].[Cl-].[O-2].[O-2].[Ru+3].[Ru+3].[Ru+4] [Ruthenium red] | – | – | – | Inhibition of stimulation of the insect TRPV channel [1]: inhibited; Inhibition of stimulation of the insect TRPV channel ([1]; listed as ruthenium red): inhibition of the response
CNC(=O)c1cc(Cl)cc(C)c1NC(=O)c1cc(Br)nn1-c1ncccc1Cl [Rynaxapyr] | 43 | 93 | 74 | –
N#C/N=C1\SCCN1Cc1ccc(Cl)nc1 [Thiacloprid] | 36 | 29 | 16 | –
CC1=NNC(=O)N(/N=C/c2cccnc2)C1 [pymetrozine] | – | – | – | Ca2+ mobilization in cells co-expressing Nan and Iav (insect TRPV channel), in words [1]: triggered Ca^2+ mobilization; also recorded: activation of insect TRPV channel; Ca2+ mobilization in cells co-expressing Nan and Iav (insect TRPV channel), in words ([1]; listed as Pymetrozine): triggered Ca^2+ mobilization; Ca2+ mobilization in cells expressing mTRPV4, in words (mouse TRPV4 (mTRPV4); listed as Pymetrozine): had no effect
CC(=O)N1C(=O)N(NCc2cccnc2)Cc2cc(C(F)(C(F)(F)F)C(F)(F)F)ccc21 [pyrifluquinazon] | – | – | – | Ca2+ mobilization in cells co-expressing Nan and Iav (insect TRPV channel), in words [1]: triggered Ca^2+ mobilization; Dependence of the cell response on Ca2+ in the extracellular media [1]: absolutely dependent on the presence of Ca^2+ in the extracellular media
Abamectin | 49 | 52 | 30 | –
Ryanodine | – | 75 | 19 | Response of cells (fluorescence units), Insect TRPV cells ([1]; […]): 53 fluorescence units
